Measured values as given in US20120283174A1, “ANTIBIOFILM GLYCOPEPTIDES” (ORAL HEALTH AUSTRALIA PTY. LTD., priority 2009, published 2012).
Marks after values point to notes of the source that are not given here.

Columns and labels:
S. mutans biofilm = assay: Early stage (6 h) S. mutans flow cell biofilms, 10 min treatment, 16 h recovery, CSLM; assay type: cell-based, Streptococcus mutans Ingbritt; design: key to Surface to biovolume ratio / Roughness coefficient (dimensionless, range: zero-infinity) / Biovolume / Average thickness: —: No significant amount of biofilms detected after 16 h recovery; settings: 6 h biofilm
Experimental: (§1) Flowcell culture and CSLM analysis of monospecific biofilm The biofilm culture of S. mutans in flow cells was similar to that described by Wen et al. (2006) with several modifications. A 3-channel flow cell system (Stovall Life Science, Greensboro, N.C., USA) was modified with stopcocks for inoculation, testing and staining of the bacterial biofilms. All parts were assembled and 0.5% sodium hypochlorite was pumped in and left overnight. Sterile water (200 mL) was then used to flush the system prior to the addition of growth medium. The system was inoculated with 1 mL of an exponentially growing S. mutans Ingbritt culture diluted to a cell density of 1×10^7 cells/mL. The system was incubated for 1 h prior to constant flow (0.2 mL/min) of 25% ASM (ASM; 2.5 g/L type II porcine gastric mucin, 2.0 g/L bacteriological peptone, 2.0 g/L tryptone, 1.0 g/L yeast extract, 0.35 g/L NaCl, 0.2 g/L KCl, 0.2 g/L CaCl2 and 1 mg/L haemin, pH 7.0) supplemented with 2.5 mM DTT and 0.5 g/L sucrose.. After 16 h, 1 mL of purified glycosylated x-casein(106-169) (KCG); KCGP(f106-169); KCGPZ(f106-169) (KCGPZ(f106-169); 10 mg/mL KCGP(f106-169) and 20 mM ZnCl2); 20 mM ZnCl2; 0.1% chlorhexidine digluconate or sterile water was injected into each channel of the system and incubated for 10 min, the flow of 25% ASM was then resumed for 10 min prior to staining. For determination of the effects of treatments on early stage biofilms the system was incubated for 6 h after inoculation, treated with 1 mL of test solutions for 10 min and the flow of 25% ASM resumed for another 16 h to observe recovery of the biofilm. BacLight LIVE/DEAD stain (Molecular Probes) was then used to stain the biofilm in situ.
(§2) Confocal laser scanning microscopy (CLSM) of the bacterial biofilms was carried out on a Meta 510 Confocal Microscope with an inverted stage (Zeiss). Horizontal (xy) optodigital sections, each 2 μm thick over the entire thickness of the biofilm (z) were imaged using a 63× objective at 512×512 pixel (0.28 μm per pixel), with each frame at 143.86 μm (x)×143.86 μm (y). To determine reproducibility across the biofilm 5 images at random positions were obtained at wavelengths of 488 nm and 568 nm for each channel and 3 biological replicates were used. All images obtained were analysed using Comstat software (Heydorn et al., 2000).
(§3) Data treatment and statistical analyses. The biometric data were analyzed using a two-factor analysis of variance (ANOVA) model with treatment included as a fixed factor and experiment as a random blocking factor to investigate the effect of KCGP(f106-169), KCG, KCGPZ(f106-169), Zinc and chlorhexidine on established biofilms. If treatment differences were significant, post hoc comparisons of treatment differences were performed using the Tukey posttest. Model fits were checked by residual plots, normality was investigated using normal probability plots and the Kolmogorov-Smirnov test and homogeneity of error variances was tested using Levene's test. When the error variances were heterogeneous a natural logarithm transformation of the data was used to stabilize the treatment group variances. Treatments were then compared using ANOVA on the transformed data. The biometric data obtained from the experiments investigating the effect of KCGPZ(f106-169) on 6 h S. mutans biofilms was analysed using a Paired Samples T-Test. All analyses were conducted using SPSS statistical software (version 17.0, SPSS Inc., Chicago, Ill.).

[1] = tested on: S. sanguis cells grown as a biofilm; settings: 0.2% w/v, 5 minute exposure, biofilm in a CDFF; cited from earlier work
six species oral biofilm = settings: 0.2% w/v, 1 and 5 minutes of exposure; cited from earlier work
[2] = 0.12% mouthwash, over a 12 week period; cited from earlier work
S. mutans biofilms = assay: Flow cell culture and CSLM analysis of 16 h S. mutans biofilms, single 10 min treatment; assay type: cell-based, Streptococcus mutans Ingbritt
Experimental: as §1, §2, §3

[3] = 0.1% chlorhexidine digluconate, 10 min treatment
[4] = 0.1% (Table 1), 16 h biofilm, single 10 min treatment
[5] = 0.1%, 16 h biofilm, single 10 min treatment
[6] = 0.1%, 16 h biofilm, single 10 min treatment, listed as Chlorhexidine digluconate

[H]/N=C(\N/C(=N/[H])NCCCCCCNC(=N)NC(=N)Nc1ccc(Cl)cc1)Nc1ccc(Cl)cc1 [Chlorhexidine, chlorhexidine digluconate]
Average thickness (S. mutans biofilm; [3]): —^b | Biovolume (S. mutans biofilm; [3]): —^b | Roughness coefficient (dimensionless, range: zero-infinity) (S. mutans biofilm; [3]): —^b | Surface to biovolume ratio (S. mutans biofilm; [3]): —^b | effect on early S. mutans biofilms in words (S. mutans biofilm; single 10 min treatment): substantially reducing the biofilms, which had not recovered after 16 h | reduction in viable S. sanguis cells [1]: ~2 log10 | effect on six species oral biofilm (six species oral biofilm): no significant difference | reduction of gingival inflammation [2]: 25% | reduction of plaque accumulation [2]: 28% | reduction of average thickness (S. mutans biofilms; [4]): 59% | reduction of total biomass (S. mutans biofilms; [4]): 53% | Average thickness (S. mutans biofilms; [5]): 3.02 ± 0.66^a μm | Biovolume (S. mutans biofilms; [5]): 1.82 ± 0.60^a μm^3/μm^2 | Roughness coefficient (dimensionless, range: zero-infinity) (S. mutans biofilms; [5]): 1.51 ± 0.12^a | Surface to biovolume ratio (S. mutans biofilms; [5]): 2.36 ± 1.24^ab μm^2/μm^3 | Average thickness (S. mutans biofilms; [6]): Significant reduction | Biovolume (S. mutans biofilms; [6]): Significant reduction | Surface to biovolume ratio (S. mutans biofilms; 0.1%, 16 h biofilm, single 10 min treatment, listed as chlorhexidine): nonsignificant differences | dead S. mutans cells by propidium iodide staining (BacLight Live/Dead, FIG. 5) (S. mutans biofilms; 16 h biofilm after treatment, qualitative): qualitatively higher number of dead S. mutans cells compared with KCG or KCGPZ(f106-169) | disruption / inhibition of S. mutans biofilms, comparison between treatments in words (S. mutans biofilms; 16 h biofilm, single 10 min treatment, concentrations as in Table 1): not significantly different to those produced by ZnCl2, 2.4 mg/mL purified KCG or 10 mg/mL KCGP(f106-169)

[Cl-].[Cl-].[Zn+2] [ZnCl2]
Roughness coefficient (dimensionless, range: zero-infinity) (S. mutans biofilms; 20 mM, 16 h biofilm, single 10 min treatment): 1.54 ± 0.07^ab
